Tests used:
C57BL/6 adult mice [1] = assay: Ischemia-reperfusion model (transient ligation of descending anterior left coronary 30 min, then reperfusion); type: in vivo
Procedure: Both groups were subjected to experimental infarction. A control group received no treatment. Two myocardial infraction models were used, respectively a permanent infarction model and an ischemia -reperfusion model. The LSD1 inhibitor (1.5 mg / Kg) was administered by intragastric gavage 10 days after experimental infarction and for three weeks. Losartan (5mg/kg) was also administered by oral gavage one week after experimental infarction and for three weeks, • 1: experimental infarctus : • 2.: 10 days later: control echo : pretreatment echo: • 3: posttreatment echo one month later The severity of the infarction was assessed by echocardiography 10 days after surgery. LSD1 activity was measured at the end of treatment ([…] kit) in explanted hearts. […] The ventricular wall has thickened when compared to the group treated with losartan Student -t-test ** p≤ 0.001 (Figure 2 B). Left ventricular function has improved. • 2- Ischemia -reperfusion model : transient ligation of descending anterior left coronary (30 min); followed by reperfusion The results were similar in the ischemia / reperfusion model. […] Student -t-test **p≤ 0.001 The shortening fraction (SF) is an index of contractile activity : the contraction of the walls of ventricle is responsible of the shortening of the distance between each wall. This is calculated by dividing the distance between the walls at diastole minus the distance between the walls at systole by the distance between the walls at diastole (in %) Shortening fraction x Volume of chamber = ejection fraction (% of the chamber volume emptied at each contraction)

LSD1 = biological target: T1, LSD1 (Mus musculus, UniProt Q6ZQ88); assay: Cardiac LSD1 activity in explanted hearts at end of treatment (Epigentec kit); type: in vivo, mice; settings: 1.5 mg / Kg intragastric gavage from 10 days after experimental infarction for three weeks, Figure 1
T1 construct: from tissue; host or cells: explanted hearts of C57BL/6 mice
Procedure: The LSD1 inhibitor (1.5 mg / Kg) was administered by intragastric gavage 10 days after experimental infarction and for three weeks. Losartan (5mg/kg) was also administered by oral gavage one week after experimental infarction and for three weeks,
The severity of the infarction was assessed by echocardiography 10 days after surgery. LSD1 activity was measured at the end of treatment (Epigentec kit) in explanted hearts. […] The ventricular wall has thickened when compared to the group treated with losartan Student -t-test ** p≤ 0.001 (Figure 2 B). Left ventricular function has improved. • 2- Ischemia -reperfusion model : transient ligation of descending anterior left coronary (30 min); followed by reperfusion

C57BL/6 adult mice [2] = assay: Permanent infarction model (permanent ligation of descending anterior left coronary, no reperfusion); type: in vivo
Procedure: Both groups were subjected to experimental infarction. A control group received no treatment. Two myocardial infraction models were used, respectively a permanent infarction model and an ischemia -reperfusion model. The LSD1 inhibitor (1.5 mg / Kg) was administered by intragastric gavage 10 days after experimental infarction and for three weeks. Losartan (5mg/kg) was also administered by oral gavage one week after experimental infarction and for three weeks, • 1: experimental infarctus : • 2.: 10 days later: control echo : pretreatment echo: • 3: posttreatment echo one month later The severity of the infarction was assessed by echocardiography 10 days after surgery. LSD1 activity was measured at the end of treatment ([…] kit) in explanted hearts. […] The ventricular wall has thickened when compared to the group treated with losartan Student -t-test ** p≤ 0.001 (Figure 2 B). Left ventricular function has improved. • 2- Ischemia -reperfusion model : transient ligation of descending anterior left coronary (30 min); followed by reperfusion

Cl.Cl.c1ccc([C@@H]2C[C@H]2NC2CCNCC2)cc1 [GSK-LSD1, N-[(1R,2S)-2-phenylcyclopropyl]piperidin-4-amine dihydrochloride]
myocardial fibrosis area (LV) (C57BL/6 adult mice [1]; ischemia / reperfusion, 1.5 mg / Kg gavage, three weeks, compared with the non treated group, p≤ 0.001, Figure 3 A): prevented fibrosis | Left ventricular function (C57BL/6 adult mice [1]; ischemia / reperfusion, M-mode echocardiography, compared to non-treated group and pretreatment, p≤ 0.001, Figure 3 B): fully restored left ventricular function | shortening fraction (SF) (C57BL/6 adult mice [1]; post administration, normal SF in healthy mice 60%, post infarct 20%): 60% | cardiac LSD1 activity (LSD1): significantly reduced | Left ventricular function (C57BL/6 adult mice [2]; 1.5 mg / Kg gavage, three weeks): has improved | left ventricular wall thickness (C57BL/6 adult mice [2]; 1.5 mg / Kg gavage, three weeks, compared to the group treated with losartan, p≤ 0.001, Figure 2 B): has thickened | myocardial fibrosis area (left ventricle : LV) (C57BL/6 adult mice [2]; 1.5 mg / Kg intragastric gavage from 10 days after infarction for three weeks, compared to Losartan (5mg/kg), Figure 2 A): significantly reduced fibrosis

From EP3964204A1, “LSD1 INHIBITORS FOR USE IN THE TREATMENT AND PREVENTION OF FIBROSIS OF TISSUES” (Université d'Aix-Marseille, priority 2020, dated 2022)
